ChEMBL document CHEMBL2073804, “Transport of the beta -O-glucuronide conjugate of the tobacco-specific carcinogen 4-(methylnitrosamino)-1-(3-pyridyl)-1-butanol (NNAL) by the multidrug resistance protein 1 (MRP1). Requirement for glutathione or a non-sulfur-containing analog” (J Biol Chem, 2001)

Target: ATP-binding cassette sub-family C member 2 (Homo sapiens, UniProt Q92887)
Test: TP_TRANSPORTER: uptake in membrane vesicle from MRP2-expressing HEK293T cells
Format: functional, cell membranes
Conditions: hek293

Chain of ATP-binding cassette sub-family C member 2 (Q92887 whole entry): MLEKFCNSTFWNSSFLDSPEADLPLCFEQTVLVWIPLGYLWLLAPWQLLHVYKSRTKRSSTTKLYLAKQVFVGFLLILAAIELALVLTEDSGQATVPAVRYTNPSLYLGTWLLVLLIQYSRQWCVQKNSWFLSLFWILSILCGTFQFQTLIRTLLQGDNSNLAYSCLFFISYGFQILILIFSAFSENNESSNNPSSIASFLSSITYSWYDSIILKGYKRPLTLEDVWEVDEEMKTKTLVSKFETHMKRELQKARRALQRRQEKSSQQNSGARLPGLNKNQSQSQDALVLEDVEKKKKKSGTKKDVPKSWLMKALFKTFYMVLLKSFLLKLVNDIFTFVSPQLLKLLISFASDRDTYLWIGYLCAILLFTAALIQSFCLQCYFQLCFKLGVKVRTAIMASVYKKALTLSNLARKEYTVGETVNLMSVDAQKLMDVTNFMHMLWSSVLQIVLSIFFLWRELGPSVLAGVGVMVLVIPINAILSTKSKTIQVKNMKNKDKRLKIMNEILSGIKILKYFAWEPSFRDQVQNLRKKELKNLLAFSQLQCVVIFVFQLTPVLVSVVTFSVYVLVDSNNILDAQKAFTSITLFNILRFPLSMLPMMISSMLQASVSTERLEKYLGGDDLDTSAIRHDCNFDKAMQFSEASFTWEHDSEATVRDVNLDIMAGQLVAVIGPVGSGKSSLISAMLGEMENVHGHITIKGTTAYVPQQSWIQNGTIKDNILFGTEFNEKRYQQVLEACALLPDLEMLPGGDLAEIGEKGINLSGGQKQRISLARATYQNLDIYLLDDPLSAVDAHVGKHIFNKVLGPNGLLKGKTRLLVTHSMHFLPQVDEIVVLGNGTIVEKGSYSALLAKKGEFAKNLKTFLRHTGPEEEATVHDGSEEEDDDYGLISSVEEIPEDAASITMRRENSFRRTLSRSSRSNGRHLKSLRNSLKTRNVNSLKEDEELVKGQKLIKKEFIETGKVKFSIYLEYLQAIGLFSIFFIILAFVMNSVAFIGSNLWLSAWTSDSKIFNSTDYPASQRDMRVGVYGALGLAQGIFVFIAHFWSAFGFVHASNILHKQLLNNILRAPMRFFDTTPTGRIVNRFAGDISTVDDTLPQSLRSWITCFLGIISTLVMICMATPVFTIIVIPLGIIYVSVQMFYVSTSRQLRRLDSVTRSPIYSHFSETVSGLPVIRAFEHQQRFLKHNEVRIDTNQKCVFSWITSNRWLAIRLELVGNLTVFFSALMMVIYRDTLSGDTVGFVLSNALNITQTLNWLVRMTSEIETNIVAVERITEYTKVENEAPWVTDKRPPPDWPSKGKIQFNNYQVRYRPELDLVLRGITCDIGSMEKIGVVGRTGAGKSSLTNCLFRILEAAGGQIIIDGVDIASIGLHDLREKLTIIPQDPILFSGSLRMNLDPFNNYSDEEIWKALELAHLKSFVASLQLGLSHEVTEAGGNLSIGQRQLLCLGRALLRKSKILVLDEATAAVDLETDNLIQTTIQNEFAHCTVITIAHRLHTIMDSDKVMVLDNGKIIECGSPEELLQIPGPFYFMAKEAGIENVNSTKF

Activity: substrate [+]
SMILES: CN(CCCC(C[C@@H]1O[C@H](C(=O)O)[C@@H](O)[C@H](O)[C@H]1O)c1cccnc1)N=O (stereo partly specified)
